According to publication PMC7099587 (ACS Central Science, 2020):
Numbered stars: 1 amine (or outer) side, 2 acyl side, 3 side chain; on linkers, the order of the positions; unused ones are H or OH. Bridge positions count the residues as written; N and C are the ends. Square brackets hold non-standard residues; d marks the D form. Ends that are not written are not given here. Peptide text beside a SMILES is read from it. CH2CH2 = C(C[*:2])[*:1]

Experiments:
Sonic Hedgehog (Shh) = Sonic Hedgehog (Shh) (Homo sapiens, UniProt Q15465); test: Shh binding assay
Shh = conditions: read-out: KD (Shh); cited from earlier work
Keap1 Kelch domain (KKD) = Keap1 Kelch domain (KKD) (Homo sapiens, UniProt Q14145); test: Keap1 Kelch domain direct binding assay
Chain of Keap1 Kelch domain (KKD) (Q14145 321-609 limits assumed): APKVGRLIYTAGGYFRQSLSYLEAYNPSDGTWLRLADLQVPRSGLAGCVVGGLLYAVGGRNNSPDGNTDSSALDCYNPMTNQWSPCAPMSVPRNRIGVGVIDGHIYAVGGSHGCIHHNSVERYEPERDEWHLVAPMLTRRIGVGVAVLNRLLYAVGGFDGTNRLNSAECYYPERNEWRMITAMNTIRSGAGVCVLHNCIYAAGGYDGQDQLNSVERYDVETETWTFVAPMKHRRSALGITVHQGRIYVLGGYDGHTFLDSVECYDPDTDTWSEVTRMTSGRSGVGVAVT

[1] = biological target: Sonic Hedgehog construct with N-terminal poly-His tag and TEV-cleavable linker ("Shh") (UniProt Q15465); test: ELISA
[2] = biological target: HHIP L2 linear peptide L2 loop (Homo sapiens) (UniProt Q96QV1); conditions: cited from earlier work
[3] = biological target: Kelch domain of Kelch-like ECH-associated protein 1 (Keap1); test: ELISA

**Q.** For `CSCC[C@@H]1NC(=O)[C@H](C)NC(=O)[C@H](CCC(=O)O)NC(=O)[C@@H](NC(=O)[C@@H]2CCCN2C(=O)[C@H](CO)NC(=O)[C@H](CO)NC(=O)CNC(=O)[C@H](CO)NC(=O)CNC(=O)[C@H](CO)NC(=O)CNC(=O)[C@H](CCCCN)NC(=O)[C@H](CC(=O)O)NC(=O)[C@H](CC(=O)O)NC(=O)[C@H](CC(=O)O)NC(=O)[C@H](CC(=O)O)NC(=O)[C@H](CCCCN)NC(=O)[C@H](Cc2ccc(O)cc2)NC(=O)[C@H](CC(=O)O)NC(=O)[C@@H](N)CCSC)Cc2ccc(cc2)OCCSC[C@@H](C(=O)N[C@H](C(=O)N[C@@H](CC(=O)O)C(=O)N[C@H](C(=O)O)[C@@H](C)O)[C@@H](C)O)NC(=O)[C@H](CCSC)NC(=O)[C@H](CC(=O)O)NC1=O` [Shh-m1] (H-MDYKDDDDKGSGSGSSPYEAMDMCTDT-OH; linker 18-24 via CH2CH2; N-terminus and C-terminus assumed), which Kd (Sonic Hedgehog (Shh)) is on record?
**A.** Its Kd is 550 nM.

**Q.** For “TLSW(Y*)EAMDMCTD (sidechain bridge or staple) [HL2-m5]”, which Kd (Shh) is on record?
**A.** Its Kd is 170 nM.

**Q.** Which “fold higher affinity vs KKD-m1” value (Keap1 Kelch domain (KKD)) does the source give for “cyclo[Y*D(X)ETGEC] (sidechain bridge or staple) [KKD(6X)-m2]” here?
**A.** The value was ~3 fold.

**Q.** For “cyclic version of the HHIP L2 sequence (from UniProt Q96QV1 375-387) (peptide)”, which Kd [1] is on record?
**A.** The Kd was 3600 nM.

**Q.** With Sonic Hedgehog (from UniProt Q15465) as the molecule, how does the Kd [2] read?
**A.** Its Kd is 150000 nM.

**Q.** Which “fold higher affinity vs KKD-m1” value (Keap1 Kelch domain (KKD)) does the source give for “cyclo[Y*D(X)ETGEC] (sidechain bridge or staple) [KKD(6X)-m1]” here?
**A.** Its value is ~3 fold.

**Q.** With `CSCC[C@@H]1NC(=O)[C@H](CCC(=O)O)NC(=O)[C@H](CCC(=O)O)NC(=O)[C@@H](NC(=O)[C@H](CC(=O)O)NC(=O)[C@H](CC(=O)O)NC(=O)[C@H](CC(C)C)NC(=O)[C@@H](NC(=O)[C@H](CO)NC(=O)CNC(=O)[C@H](CO)NC(=O)CNC(=O)[C@H](CCCCN)NC(=O)[C@H](CC(=O)O)NC(=O)[C@H](CC(=O)O)NC(=O)[C@H](CC(=O)O)NC(=O)[C@H](CC(=O)O)NC(=O)[C@H](CCCCN)NC(=O)[C@H](Cc2ccc(O)cc2)NC(=O)[C@H](CC(=O)O)NC(=O)[C@@H](N)CCSC)[C@@H](C)O)Cc2ccc(cc2)OCCSC[C@@H](C(=O)N[C@@H](CO)C(=O)N[C@@H](CC(=O)O)C(=O)N[C@H](C(=O)O)[C@@H](C)O)NC(=O)CNC(=O)[C@H](CC(=O)O)NC1=O` [cyclic version of the HHIP L2 sequence] (H-MDYKDDDDKGSGSTLDDYEEMDGCSDT-OH; linker 18-24 via CH2CH2; C-terminus assumed) as the molecule, how does the “fold lower affinity vs Shh-m1” value (Sonic Hedgehog (Shh)) read?
**A.** Its value is ~7 fold.

**Q.** With `O=C(C[C@@H]1C/C=C/CCC(=O)O[C@H](c2ccccc2)CNC1=O)NCc1ccc(Cl)cc1` [robotnikinin] as the molecule, how does the Kd (Shh) read?
**A.** The Kd was 3100 nM.

**Q.** With [O2beY]DAETGEC (thioether 1-8) [KKD(6X)-m1] as the molecule, how does the Kd [3] read?
**A.** Its Kd is 40 nM.

**Q.** For [O2beY]DIETGEC (thioether 1-8) [KKD(6X)-m2], which Kd [3] is on record?
**A.** The Kd was 40 nM.
